Converted amounts (≈) assume the structure as drawn. Structures can show the parent of a compound that is named as a salt. Where two headings read alike, the source gives them in different places.
Columns and labels:
S. aureus sortase A [1] = target: T1, S. aureus sortase A (Staphylococcus aureus, UniProt Q2FV99); assay: SrtA enzyme inhibition FRET assay, DABCYL-LPETG-EDANS substrate; type: biochemical
T1 construct: purchased AnaSpec AS-72229
Procedure: (§1) The enzymatic reactions were carried out in black, low-binding polystyrene 384 well plates (Greiner Bio-One). […] SrtA was pre-incubated in the reaction buffer with compounds for 1 h at room temperature prior to the addition of the FRET substrate. Assays were performed in 50 µL reactions with 50 ng of S. aureus sortase A and 25 µM of DABCYL-LPETG-EDANS substrate or 1 µM of 5-FAM/QXL^TM 520 substrate. The inhibitory activity of the compounds was determined by monitoring the rise in fluorescence intensity over 24 h at Ex/Em = 336 nm/490 nm for the DABCYL/EDANS substrate and Ex/Em = 490 nm/520 nm for the 5-FAM/QXL 520 substrate on a Tecan Infinite M1000 Pro reader.
(§2) Raw fluorescence data were corrected for autofluorescence before computing percentage inhibition values. These percentage inhibition values were plotted against compound concentration using GraphPad Prism version 8.0 by nonlinear regression analysis using least squares fit method for IC50 determination. Testing was performed twice to ensure reproducibility of results.

S. aureus sortase A [2] = target: T1, S. aureus sortase A; assay: SrtA enzyme inhibition FRET assay, 5-FAM/QXL 520 substrate; type: biochemical
Procedure: as §1, §2

S. aureus ATCC 25923 = assay: S. aureus whole cell assay (MIC, microbroth dilution); type: cell-based, Staphylococcus aureus; settings: for MIC: Staphylococcus aureus, ATCC25923, 24 h
Procedure: (§3) Minimum inhibitory concentration (MIC) tests were performed according to procedures of the Clinical Laboratory Standards Institute (CLSI) with minor changes using the microbroth dilution technique in a 384-well setup. Inoculum of each S. aureus strain was prepared by suspending segregated colonies in sterile saline to a 0.5 McFarland standard. An inoculum of 2–8 × 10^5 CFU/mL was incubated with the compounds for 24 h at 37 °C. Gentamicin (data not shown) was incubated in the same manner as the test compounds and served as a positive control. The effect of the compounds on bacterial growth was calculated by quantifying the optical density at 600 nm on a microplate reader (Tecan, Infinite M1000, Salzburg, Austria). Dilutions of the inoculum were cultivated on agar to verify the validity of the inoculum seeding density and absence of contamination. All tests were executed in triplicate during two separate experiments.

S. aureus Newman = assay: as above; type: cell-based, Staphylococcus aureus; settings: for MIC: Staphylococcus aureus, NEWMAN
Procedure: as §3

A549 cells = assay: Mammalian cell cytotoxicity assay (PrestoBlue); type: cell-based, human; settings: read-out: Mammalian cell lines IC50
Procedure: (§4) A549 and HepG2 cells were seeded at 1500 and 2500 cells per well, respectively, in 384-well microplates and incubated at 37 °C in the presence of 5% CO2. The next day, cells were treated with compounds then incubated for an additional 72 h. To assess the cytotoxic effect of the compounds PrestoBlue cell viability reagent (Life Technologies, Carlsbad, CA, USA) was used. After the 72 h incubation with compounds, the 384-well assay plates were incubated with this viability indicator dye for 2 h (A549) and 4 h (HepG2) before fluorescence reading at Ex/Em = 560 nm/590 nm on the Tecan Infinite M1000 Pro reader. Puromycin (data not shown) was used as the positive control against both cell lines. All tests were executed in triplicate on two separate experiments.

HepG2 cells = assay: Mammalian cell cytotoxicity assay (PrestoBlue); type: cell-based, human; settings: read-out: Mammalian cell lines IC50
Procedure: as §4

[3] = system: S. aureus ATCC 33591 (MRSA) biofilm formation; assay: Biofilm inhibitory assay (crystal violet), biofilm formation; type: cell-based, Staphylococcus aureus
Procedure: (§5) The effectiveness of SrtA inhibitors in reducing biofilm formation and growth was assessed using the crystal violet (CV) biofilm assay with the following modifications. TSB with 2% glucose (TSB without glucose for E. coli) was inoculated with 10^5 CFU/mL of S. aureus and E. coli overnight cultures. A total of 90µl of this cell suspension was then dispensed into 96-well microtiter plates containing 10 µL of different concentrations of the SrtA inhibitors. After 24 h growth at 37 °C the plates were washed with PBS to remove unbound cells and heat fixed at 60 °C for 30 min. Next, the wells were stained with 0.1% crystal violet solution for 15 min at room temperature. At the completion of the incubation plates were washed 3 times with PBS and dried. Then the crystal violet dye from the biofilm was solubilized with 200 µL of DMSO. A total of 100 µL of this solution was then moved to a new microtiter plate for absorbance measurement at 595 nm. For pre-formed biofilm assay, the plates were prepared and incubated as mentioned earlier, without SrtA inhibitors. After 24 h incubation, the culture supernatant was removed gently and biofilm carefully washed with sterile PBS. Next, 10 µL of different concentrations of SrtA inhibitors with 90 µL of TSB with 2% glucose were added carefully into the wells and incubated at 37 °C for 24 h. The amount of crystal violet staining of biofilm was measured as described above. The results were reported as percent inhibition normalized to the wild type control. Two independent experiments were performed in triplicate to ensure reproducibility.

[4] = system: S. aureus Newman biofilm formation; assay: as above; type: cell-based, Staphylococcus aureus; settings: CV assay; for IC50: biofilm formation, read-out: Biofilm Inhibition IC50
Procedure: as §5

[5] = system: S. aureus ATCC 33591 (MRSA) pre-formed biofilms; assay: Biofilm inhibitory assay (crystal violet), pre-formed biofilms; type: cell-based, Staphylococcus aureus; settings: in words
Procedure: as §5

[6] = system: E. coli ATCC 25922 biofilm formation; assay: Biofilm inhibitory assay (crystal violet), biofilm formation; type: cell-based; settings: in words; CV assay
Procedure: as §5, with “Next, 10 µL of different concentrations of SrtA inhibitors with 90 µL of TSB with 2% glucose were added carefully into the wells and incubated at 37 °C for 24 h.” left out, “The results were reported as percent inhibition normalized to the wild type control. Two independent experiments were performed in triplicate to ensure reproducibility.” left out

[7] = system: adherence of S. aureus Newman to fibrinogen; assay: Fibrinogen binding assay; type: cell-based, Staphylococcus aureus
Procedure: Fibrinogen binding assay was completed as described but with slight revision. A flat-bottom 96-well plate was covered with fibrinogen protein by adding 50 µL of 20 µg/mL of fibrinogen protein from bovine plasma diluted in saline and incubated at 4 °C for 24 h. The coated plates were gently rinsed twice with PBS and blocked for 60 min with 4% bovine serum albumin (BSA). The plates were then washed 3 times with PBS. For this assay, S. aureus Newman strain was cultivated in TSB at 37 °C to exponential phase (OD600 = 0.5) and then the bacterial culture was incubated with various concentrations of test compound or control for 2.5 h. Then the cells were pelleted by centrifugation at 10,000× g for 10 min, the supernatants were removed and the cell pellets stored at −20 °C. The following day, cell pellets were suspended in PBS and dispersed in 100 μL aliquots to distinct wells of fibrinogen-coated 96-well plates. After 2 h of growth at 37 °C, the bacterial supernatant was discarded and the wells were rinsed gently with 150 µl PBS. Then the bacterial cells were fixed with 2% (v/v) glutaraldehyde and incubated for 30 min at 25 °C. After a wash with PBS, bound cells were stained with 0.1% crystal violet dye for 15 min. Plates were rinsed twice again with PBS, enclosed with aluminum foil, then stored at room temperature to dry overnight. On the next day absorbance was measured at 570 nm. The results were described as the percent of adhesion inhibition normalized to the wild type control. Two independent experiments were performed in triplicate to ensure reproducibility.

[8] = Sortase A IC50, DABCYL-LPETG-EDANS substrate, 4 h
[9] = Sortase A IC50, 5-FAM/QXL substrate, 10 min

T1 sequence (Q2FV99 whole entry): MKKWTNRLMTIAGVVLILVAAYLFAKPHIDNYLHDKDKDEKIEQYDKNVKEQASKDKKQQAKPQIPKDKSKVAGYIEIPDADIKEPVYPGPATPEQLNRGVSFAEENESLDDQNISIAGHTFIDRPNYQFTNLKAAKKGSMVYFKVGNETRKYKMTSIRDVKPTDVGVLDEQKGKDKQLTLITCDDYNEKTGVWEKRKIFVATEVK

SMILES	IC50 (S. aureus sortase A [1]; [8])	IC50 (S. aureus sortase A [2]; [9])	MIC (S. aureus ATCC 25923)	MIC (S. aureus Newman; 24 h)	IC50 (A549 cells; Homo sapiens, A549, 72 h)	IC50 (HepG2 cells; Homo sapiens, HepG2, 72 h)	IC50 (S. aureus sortase A [1])	IC50 (S. aureus sortase A [2])	also measured
O=C(/C=C/c1ccc(O)c(O)c1)O[C@@H]1C[C@](O)(C(=O)O)C[C@@H](O)[C@H]1O [Chlorogenic acid, reference compound]	88 ± 5.6 µM	144 ± 16 µM	> 200 µM	> 200 µM	> 200 µM	> 200 µM			IC50 (S. aureus sortase A [2]; Sortase A IC50, 5-FAM/QXL substrate, after 24 h): 103 ± 31 µM; growth inhibition of S. aureus (S. aureus Newman; at 200 µM, strain not given): did not inhibit the growth
COc1ccc(C[C@H](N)C(=O)N[C@H]2[C@@H](O)[C@H](n3cnc4c(N(C)C)ncnc43)O[C@@H]2CO)cc1 [Compound N51, Puromycin hydrochloride]							> 200 µM	> 200 µM	
CC(C)(O)[C@H]1O[C@H]2CC[C@@]3(C)[C@@](O)(CC[C@H]4Cc5c([nH]c6ccccc56)[C@@]43C)C2=CC1=O [Compound N563, Paxilline]							> 200 µM	> 200 µM	
CC(C)=CCc1c(O)c(CC=C(C)C)c2occ(-c3ccc(O)cc3)c(=O)c2c1O [Compound N942, 6,8-diprenylgenistein]							> 200 µM	> 200 µM	
CC(C)=CCc1c2c(c(O)c3c(=O)c(-c4ccc(O)c(O)c4)coc13)C=CC(C)(C)O2 [Compound N1048, Auriculasin]							> 200 µM	> 200 µM	
Cc1cc(O)c2c(c1)C(=O)c1c(c(O)cc(O)c1-c1c(O)cc(O)c3c1C(=O)c1cc(C)cc(O)c1C3=O)C2=O [Compound N1287, Skyrin]	24 ± 2.1 µM	31 ± 0.3 µM	7.2 ± 0.1 µM (≈ 3.88 µg/mL)	7.3 ± 0.8 µM (≈ 3.93 µg/mL)	64.7 ± 6.2 µM	63.9 ± 5.1 µM			IC50 (S. aureus sortase A [1]; SrtA enzymatic activity IC50, text summary, Figure 2A,B, both substrates): < 50 µM; S. aureus MIC (S. aureus ATCC 25923; 24 h): 5 to 8 µM; S. aureus MIC (S. aureus Newman; Newman, 24 h): 5 to 8 µM; IC50 (A549 cells; 72 h): 60 to 90 µM; IC50 (HepG2 cells; 72 h): 60 to 90 µM; IC50 ([3]; Staphylococcus aureus, S. aureus ATCC 33591 (MRSA), biofilm formation, read-out: Biofilm Inhibition IC50): 41.9 µM; inhibitory activity on MRSA biofilm formation ([3]; in words): exhibited inhibitory activity; concentration giving >90% inhibition of biofilm formation [4]: 23 µM; IC50 ([4]; Staphylococcus aureus, NEWMAN): 12.2 ± 4.1 µM; IC50 [4]: 12 µM; inhibitory activity on MRSA pre-formed biofilms [5]: not against pre-formed biofilms; effect on E. coli ATCC 25922 biofilm formation [6]: did not show any effect; IC50 ([7]; Staphylococcus aureus, NEWMAN, read-out: Fibrinogen adherence Inhibition IC50): 9.5 ± 0.5 µM; concentration giving ≥90% prevention of S. aureus Newman adherence to fibrinogen ([7]; compared to untreated wildtype strain): 46 µM
